What was measured:
Test in all cases: Neuronal differentiation, inverted microscope morphology
Assay type in all cases: cell-based, Fischer rats
[1] = tested on: adipose-derived stem cells; conditions: 10 μM small molecules; FIG. 3C, FIG. 4
Description: (§1) Bone marrow-derived mesenchymal stem cells subcultured for 5 generations were distributed on a well plate. One day later, the cells were treated with DMEM containing 20% FBS and 10 ng/mL b-FGF for a day, so that the cells could proliferate sufficiently. In order to induce differentiation into nerve cells, the cells were treated with differentiation medium containing the small molecules listed in Table 1. The small molecules were used after being dissolved in DMSO (Sigma, USA). The concentration of DMSO was less than 2% of the entire culture medium, and was diluted so that the small molecules were included with a concentration in the range from 1 μM to 100 μM. As negative control, DMEM containing 10% FBS and 1% penicillin-streptomycin was used. And, retinoic acid as positive control, which is a well-known inducer of differentiation into nerve cells, was used after being diluted to 2 μM in DMEM. Differentiation of muscle-derived stem cells and adipose-derived stem cells into nerve cells was induced similarly as in the bone marrow-derived stem cells.

[2] = tested on: muscle-derived stem cells; conditions: 10 μM small molecules; FIG. 3B
Description: as §1

[3] = tested on: bone marrow-derived mesenchymal stem cells; conditions: 10 μM small molecules; FIG. 3A
Description: as §1

C/C(=C/CCCCC(=O)NO)C(=O)NC1Cc2ccccc2C1 [AAHA-1]
differentiation (microscopic images) [1]: differentiated

CC(CCCCC(C)(C)C(=O)NO)C(=O)Nc1ccccc1 (centres unmarked) [AAHA-2]
differentiation (microscopic images) [1]: differentiated

O=C(CCc1ccc(C(=O)NO)cc1)Nc1cccc(OCc2ccccc2)c1 [BHA-1]
differentiation (microscopic images) [1]: differentiated | differentiation (inverted microscopic images) [2]: differentiated | differentiation (inverted microscopic images) [3]: differentiated

O=C(Nc1ccccc1)/C(=C/c1ccc(C(=O)NO)cc1)COc1ccc2oc3ccccc3c2c1 [BHA-2]
differentiation (microscopic images) [1]: differentiated

O=C(NO)c1ccc(/C=C(/CNc2ccc(-c3ccccc3)cc2)COc2cccc3ccccc23)cc1 [BHA-3]
differentiation (microscopic images) [1]: differentiated

COc1ccc(NC(=O)/C(=C/c2ccc(C(=O)NO)cc2)COc2cccc3ccccc23)cn1 [BHA-4]
differentiation (microscopic images) [1]: differentiated

O=C(NO)c1ccc2c(c1)NC(CCCc1ccccc1)C(=O)N2 (centres unmarked) [QHA-2]
differentiation (microscopic images) [1]: differentiated | differentiation (inverted microscopic images) [2]: differentiated | differentiation (inverted microscopic images) [3]: differentiated
